# Organism: Rattus norvegicus
# Test: The ability to inhibit the 5-HT-induced contraction of isolated rat fundus muscle was determined
# Type: functional
# Conditions: read-out: pA2 (converted)
row,Compound,Kb [nM]
1,COc1ccc2c(CCN(C)C)c[nH]c2c1,1700
2,CN(C)CCc1c[nH]c2ccc3c(c12)OCO3,398
3,CN(C)CCc1c[nH]c2cc3c(cc12)OCO3,1020
4,CSc1cccc2[nH]cc(CCN(C)C)c12,617
5,CSc1ccc2[nH]cc(CCN(C)C)c2c1,145
6,COc1cccc2[nH]cc(CCN(C)C)c12,676
7,CSc1ccc2c(CCN(C)C)c[nH]c2c1,1200
8,COc1ccc2[nH]cc(CCN(C)C)c2c1 [MEBUFOTENIN],83.2
9,"CN(C)CCc1c[nH]c2ccccc12 [N,N-DIMETHYLTRYPTAMINE]",1000
